This is an account of results in patent publication US9914724B2, “C-aryl glycosid derivatives, pharmaceutical composition, preparation process and uses thereof” (SHANGHAI DE NOVO PHARMATECH CO. LTD., priority 2014, dated 2018).

A value given as a limit tells only on which side of the number the result lay.

What is called IC50 is the midpoint of a concentration-inhibition curve. High values mean a need for much substance, low ones inhibition by little substance.

One experiment deals with T1, SGLT-2 (Homo sapiens, UniProt P31639).
T1 sequence (P31639 1-672): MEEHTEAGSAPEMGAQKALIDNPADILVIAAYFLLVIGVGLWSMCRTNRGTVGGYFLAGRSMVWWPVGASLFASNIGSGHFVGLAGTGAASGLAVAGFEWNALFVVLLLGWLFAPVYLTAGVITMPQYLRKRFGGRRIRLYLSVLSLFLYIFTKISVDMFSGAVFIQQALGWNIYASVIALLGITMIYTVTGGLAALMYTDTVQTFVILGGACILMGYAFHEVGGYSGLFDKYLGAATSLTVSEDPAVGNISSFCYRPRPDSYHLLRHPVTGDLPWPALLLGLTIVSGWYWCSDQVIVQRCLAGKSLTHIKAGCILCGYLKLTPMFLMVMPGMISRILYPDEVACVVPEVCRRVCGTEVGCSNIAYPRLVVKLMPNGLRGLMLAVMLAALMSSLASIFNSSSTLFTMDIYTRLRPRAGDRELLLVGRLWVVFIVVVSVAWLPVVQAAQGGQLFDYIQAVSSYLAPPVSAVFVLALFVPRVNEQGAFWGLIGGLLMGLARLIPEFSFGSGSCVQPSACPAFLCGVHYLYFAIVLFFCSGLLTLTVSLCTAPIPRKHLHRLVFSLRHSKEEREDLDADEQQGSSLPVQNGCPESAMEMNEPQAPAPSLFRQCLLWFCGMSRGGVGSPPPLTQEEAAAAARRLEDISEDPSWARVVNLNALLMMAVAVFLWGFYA
Nature of the experiment: [14C]-AMG absorption in stable SGLT2 expressing Flp-in CHO cells (SGLT-2 activity screening assay). It counts as cell-based. As to conditions: 14C-AMG uptake, 37° C. 1 h, 1% DMSO. From the text: (§1) Example 1: [^14C]-AMG Absorption in Stable SGLT1 and SGLT2 Expressing Flp-in CHO Cells (SGLT-1 and SGLT-2 Activity Screening Assay)
(§2) SGLT-1 and SGLT-2 cDNA clones were purchased from OriGene. After sequencing verification, the expression vectors were constructed based on pcDNA5/FRT using conventional molecular biology method. The expression vector was transfected into Flp-in CHO cells using Lipofectamin 2000. The transfected cells were subject hygromycin selection. The single clones of cells were selected by serial dilutions 4-5 weeks after transfection. The expression of SGLT-1 ? SGLT-2 were confirmed by RT-PCR and functional assay and cell line with strong signal was selected for subsequent study.
(§3) Culture of stable SGLT-1 and SGLT-2 expressing Flp-in CHO cell line: the culture media contain F12 medium (Invitrogen), 500 μg/ml hygromycin (Calbiochem) and 10% FBS (Invitrogen). Upon 80% confluency, the cells in the T75 flask were washed three times with PBS (Invitrogen), and 5 mL of Trpsin-EDTA solution (Invitrogen) was then added. The flask was gently rotated so that all the cells were submerged in the digestion solution. After the cells detach, 10 mL of culture medium was added and single cell suspension was prepared by pipetting up and down. The cell concentration was adjusted to 3×10^5/mL, 100 μL/well was added onto clear bottom 96-well plate (Corning).
(§4) The cells were ready for absorption assay once they attached after overnight culture. 12 h after cell plating, the cells were washed once with 150 μL/well absorption solution KRH-NMG (120 mM NMG, 4.7 mM KCl, 1.2 mM MgCl2, 2.2 mM CaCl2, 10 mM HEPES, pH 7.4 1 mM Tris). The solution was then removed from the well. 2.5 μCi/mL ^14C labeled AMG (PerkinElmer) Buffer KRH-Na+ (120 mM NaCl, 4.7 mM KCl, 1.2 mM MgCl2, 2.2 mM CaCl2, 10 mM HEPES, pH 7.4 1 mM Tris) was added at […] after washing with Buffer KRH-Na+ and KRH-NMG. The corresponding compound I was immediately added at 5 μL/well, ensuring the concentration of Dimethyl Sulfoxide was 1% (v/v). The plate was subsequently incubated at 37° C. for 1 h, after which 150 μL of ice cold wash buffer (120 mM NaCl, 4.7 mM KCl, 1.2 mM MgCl2, 2.2 mM CaCl2, 10 mM HEPES, 0.5 mM phlorizin, pH 7.4 1 mM Tris) was immediately added to terminate the reaction. Each well was washed three times with wash buffer and finally the solution was removed. Caution was taken to avoid cell detachment during the procedure. 20 μL/well of Lysis Buffer (0.1 mM NaOH) was added, the plate was vortexed at 900 rpm for 5 min. 80 μL/well of scintillation solution Microsint40 was added, and vortexed at 900 rpm for 5 min. The radioactivity was assayed using MicroBeta Trilux (PerkinElmer). The data was analyzed and IC50 of the compounds was calculated using XL-fit software.

The target of a further experiment is T2, SGLT-1 (Homo sapiens, UniProt P13866).
T2 sequence (P13866 1-664): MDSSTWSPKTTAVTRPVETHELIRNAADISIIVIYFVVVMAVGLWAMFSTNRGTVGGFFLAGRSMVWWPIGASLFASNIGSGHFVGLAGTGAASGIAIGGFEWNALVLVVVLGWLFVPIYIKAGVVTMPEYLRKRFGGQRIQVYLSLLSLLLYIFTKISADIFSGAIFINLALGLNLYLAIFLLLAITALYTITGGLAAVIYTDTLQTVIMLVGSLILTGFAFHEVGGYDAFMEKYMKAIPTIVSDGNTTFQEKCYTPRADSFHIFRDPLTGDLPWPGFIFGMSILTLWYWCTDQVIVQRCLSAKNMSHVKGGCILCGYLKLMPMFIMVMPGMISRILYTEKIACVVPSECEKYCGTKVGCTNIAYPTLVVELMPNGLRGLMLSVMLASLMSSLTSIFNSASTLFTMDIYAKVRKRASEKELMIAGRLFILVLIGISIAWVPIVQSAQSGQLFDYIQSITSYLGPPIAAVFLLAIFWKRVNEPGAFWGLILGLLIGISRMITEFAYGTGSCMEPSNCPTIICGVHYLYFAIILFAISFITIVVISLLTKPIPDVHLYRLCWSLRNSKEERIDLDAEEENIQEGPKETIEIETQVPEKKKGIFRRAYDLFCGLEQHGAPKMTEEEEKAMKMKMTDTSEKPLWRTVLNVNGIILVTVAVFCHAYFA
In words: [14C]-AMG absorption in stable SGLT1 expressing Flp-in CHO cells (SGLT-1 activity screening assay). It counts as cell-based. As to conditions: 14C-AMG uptake, 37° C. 1 h, 1% DMSO.
From the text: as §1, §2, §3, §4

Consider `OC[C@H]1O[C@@H](c2ccc(Cl)c(Cc3ccc(OCc4cc5ccc(F)cc5o4)cc3)c2)[C@H](O)[C@@H](O)[C@@H]1O` [Compound I-9, (2S,3R,4R,5S,6R)-2-(4-chloro-3-(4-((6-fluorobenzofuran-2-yl)methoxy)benzyl)phenyl)-6-(hydroxymethyl)tetrahydro-2H-pyran-3,4,5-triol], for which the IC50 against SGLT-2 was 13 nM; against SGLT-1, 151 nM.

Consider `OC[C@H]1O[C@@H](c2ccc(Cl)c(Cc3ccc(OCc4cc5cccc(F)c5o4)cc3)c2)[C@H](O)[C@@H](O)[C@@H]1O` [Compound I-10, (2S,3R,4R,5S,6R)-2-(4-chloro-3-(4-((7-fluorobenzofuran-2-yl)methoxy)benzyl)phenyl)-6-(hydroxymethyl)tetrahydro-2H-pyran-3,4,5-triol], for which the IC50 against SGLT-2 worked out at 12 nM; at SGLT-1 it was 444 nM.

Regarding `OC[C@H]1O[C@@H](c2ccc(Cl)c(Cc3ccc(OCc4cc5ccccc5o4)c(F)c3)c2)[C@H](O)[C@@H](O)[C@@H]1O` [Compound I-11, (2S,3R,4R,5S,6R)-2-(3-(4-(benzofuran-2-ylmethoxy)-3-fluorobenzyl)-4-chlorophenyl)-6-(hydroxymethyl)tetrahydro-2H-pyran-3,4,5-triol], the results for the half-maximal inhibitory concentration (IC50) against SGLT-2 and against SGLT-1 were 23 nM and 2540 nM, respectively.

In the case of `OC[C@H]1O[C@@H](c2ccc(Cl)c(Cc3ccc(OCC4Cc5ccccc5O4)c(F)c3)c2)[C@H](O)[C@@H](O)[C@@H]1O` (stereo partly drawn) [Compound I-12, (2S,3R,4R,5S,6R)-2-(4-chloro-3-(4-((2,3-dihydrobenzofuran-2-yl)methoxy)-3-fluorobenzyl)phenyl)-6-(hydroxymethyl)tetrahydro-2H-pyran-3,4,5-triol], the figures for the IC50 on SGLT-2 and against SGLT-1 were 11 nM and 1070 nM, respectively.

Take `OC[C@H]1O[C@@H](c2ccc(F)c(Cc3ccc(OCC4Cc5ccccc5O4)cc3)c2)[C@H](O)[C@@H](O)[C@@H]1O` (stereo partly drawn) [Compound I-21, (2S,3R,4R,5S,6R)-2-(3-(4-((2,3-dihydrobenzofuran-2-yl)methoxy)benzyl)-4-fluorophenyl)-6-(hydroxymethyl)tetrahydro-2H-pyran-3,4,5-triol]: the figures for the IC50 against SGLT-2 and on SGLT-1 were 13 nM and 4300 nM, respectively.

As for `OC[C@H]1O[C@@H](c2ccc(Cl)c(Cc3ccc(OC[C@@H]4Cc5ccccc5O4)cc3)c2)[C@H](O)[C@@H](O)[C@@H]1O` [Compound I-23, (2S,3R,4R,5S,6R)-2-(4-chloro-3-(4-(((S)-2,3-dihydrobenzofuran-2-yl)methoxy)benzyl)phenyl)-6-(hydroxymethyl)tetrahydro-2H-pyran-3,4,5-triol], the IC50 against SGLT-2 turned out to be 3 nM; against SGLT-1, 301 nM.

On to `OC[C@H]1O[C@@H](c2ccc(Cl)c(Cc3ccc(OC[C@H]4Cc5ccccc5O4)cc3)c2)[C@H](O)[C@@H](O)[C@@H]1O` [Compound I-24, (2S,3R,4R,5S,6R)-2-(4-chloro-3-(4-(((R)-2,3-dihydrobenzofuran-2-yl)methoxy)benzyl)phenyl)-6-(hydroxymethyl)tetrahydro-2H-pyran-3,4,5-triol], for which the figures for the IC50 against SGLT-2 and against SGLT-1 were 4.3 nM and 1190 nM, respectively.

Take `Cc1ccc([C@@H]2O[C@H](CO)[C@@H](O)[C@H](O)[C@H]2O)cc1Cc1ccc(OCC2Cc3ccccc3O2)cc1` (stereo partly drawn) [Compound I-25, (2S,3R,4R,5S,6R)-2-(3-(4-((2,3-dihydrobenzofuran-2-yl)methoxy)benzyl)-4-methylphenyl)-6-(hydroxymethyl)tetrahydro-2H-pyran-3,4,5-triol]: the figures for the IC50 at SGLT-2 and at SGLT-1 were 4.1 nM and 180 nM, respectively.

On to `Cc1ccc([C@@H]2O[C@H](CO)[C@@H](O)[C@H](O)[C@H]2O)cc1Cc1ccc(OC[C@@H]2Cc3ccccc3O2)cc1` [Compound I-26, (2S,3R,4R,5S,6R)-2-(3-(4-(((S)-2,3-dihydrobenzofuran-2-yl)methoxy)benzyl)-4-methylphenyl)-6-(hydroxymethyl)tetrahydro-2H-pyran-3,4,5-triol], for which the figures for the half-maximal inhibitory concentration (IC50) on SGLT-2 and against SGLT-1 were 2.7 nM and 95 nM, respectively.

Consider `N#Cc1ccc([C@@H]2O[C@H](CO)[C@@H](O)[C@H](O)[C@H]2O)cc1Cc1ccc(OCC2Cc3ccccc3O2)cc1` (stereo partly drawn) [Compound I-28, 2-(4-((2,3-dihydrobenzofuran-2-yl)methoxy)benzyl)-4-((2S,3R,4R,5S,6R)-3,4,5-trihydroxy-6-(hydroxymethyl)tetrahydro-2H-pyran-2-yl)benzonitrile], for which the IC50 against SGLT-2 was more than 2000 nM; against SGLT-1, 41400 nM.

`COc1ccc([C@@H]2O[C@H](CO)[C@@H](O)[C@H](O)[C@H]2O)cc1Cc1ccc(OCC2Cc3ccccc3O2)cc1` (stereo partly drawn) [Compound I-29, (2S,3R,4R,5S,6R)-2-(3-(4-((2,3-dihydrobenzofuran-2-yl)methoxy)benzyl)-4-methoxyphenyl)-6-(hydroxymethyl)tetrahydro-2H-pyran-3,4,5-triol]: the IC50 against SGLT-2 stood at 59 nM; on SGLT-1, 220 nM.

On to `OC[C@H]1O[C@@H](c2cccc(Cc3ccc(OCC4Cc5ccccc5O4)cc3)c2)[C@H](O)[C@@H](O)[C@@H]1O` (stereo partly drawn) [Compound I-30, (2S,3R,4R,5S,6R)-2-(3-(4-((2,3-dihydrobenzofuran-2-yl)methoxy)benzyl)phenyl)-6-(hydroxymethyl)tetrahydro-2H-pyran-3,4,5-triol], for which the IC50 at SGLT-2 stood at 125 nM; on SGLT-1, 9370 nM.

Take `OC[C@H]1O[C@@H](c2ccc(Cl)c(Cc3ccc(OCC4Cc5c(F)cccc5O4)cc3)c2)[C@H](O)[C@@H](O)[C@@H]1O` (stereo partly drawn) [Compound I-31, (2S,3R,4R,5S,6R)-2-(4-chloro-3-(4-((4-fluoro-2,3-dihydrobenzofuran-2-yl)methoxy)benzyl)phenyl)-6-(hydroxymethyl)tetrahydro-2H-pyran-3,4,5-triol]: the IC50 against SGLT-2 is 6.5 nM; against SGLT-1, 365 nM.

Regarding `OC[C@H]1O[C@@H](c2ccc(Cl)c(Cc3ccc(OCC4Cc5cc(F)ccc5O4)cc3)c2)[C@H](O)[C@@H](O)[C@@H]1O` (stereo partly drawn) [Compound I-32, (2S,3R,4R,5S,6R)-2-(4-chloro-3-(4-((5-fluoro-2,3-dihydrobenzofuran-2-yl)methoxy)benzyl)phenyl)-6-(hydroxymethyl)tetrahydro-2H-pyran-3,4,5-triol], the half-maximal inhibitory concentration (IC50) is 6.7 nM at SGLT-2 and 472 nM against SGLT-1.
